Data published in ChEMBL document CHEMBL1152734, “Novel E. coli beta-ketoacyl-acyl carrier protein synthase III inhibitors as targeted antibiotics” (Bioorg Med Chem, 2009).
Converted amounts (≈) assume the structure as drawn. The source made the active and inactive calls. The rule behind the calls is not given here.

Experiments:
[1] = tested on: Enterococcus faecalis; assay: Antimicrobial activity against Enterococcus faecalis KCTC 2011 after 20 hrs by twofold serial broth dilution method; type: functional; conditions: KCTC 2011, 20 h
[2] = tested on: Staphylococcus aureus; assay: Antimicrobial activity against Staphylococcus aureus KCTC 1621 after 20 hrs by twofold serial broth dilution method; type: functional; conditions: KCTC 1621, 20 h
[3] = tested on: Escherichia coli K-12; assay: Binding affinity to Escherichia coli K12 KAS 3 expressed in Escherichia coli BL21 by STD-NMR spectroscopy
[4] = tested on: Staphylococcus aureus; assay: Antimicrobial activity against methicillin-resistant Staphylococcus aureus CCARM 3114 after 20 hrs by twofold serial broth dilution method; type: functional; conditions: CCARM 3114, 20 h
[5] = molecular target: T1, Beta-ketoacyl-[acyl-carrier-protein] synthase III (Escherichia coli K-12, UniProt P0A6R0); assay: Binding affinity to Escherichia coli K12 KAS 3 expressed in Escherichia coli BL21 by fluorescence quenching analysis
T1 sequence (P0A6R0 whole entry): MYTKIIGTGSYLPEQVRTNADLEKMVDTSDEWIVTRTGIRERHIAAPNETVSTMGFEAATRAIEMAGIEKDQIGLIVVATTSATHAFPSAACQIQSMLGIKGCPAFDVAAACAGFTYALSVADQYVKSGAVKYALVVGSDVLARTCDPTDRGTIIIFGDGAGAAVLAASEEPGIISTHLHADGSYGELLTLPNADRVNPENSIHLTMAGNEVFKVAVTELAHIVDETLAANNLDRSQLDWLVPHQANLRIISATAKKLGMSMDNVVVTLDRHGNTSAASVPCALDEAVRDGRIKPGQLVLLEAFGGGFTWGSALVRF

[6] = tested on: Escherichia coli; assay: Antimicrobial activity against Escherichia coli KCTC 1682 after 20 hrs by twofold serial broth dilution method; type: functional; conditions: KCTC 1682, 20 h
[7] = tested on: Klebsiella pneumoniae; assay: Antimicrobial activity against Klebsiella pneumoniae KCTC 2242 after 20 hrs by twofold serial broth dilution method; type: functional; conditions: KCTC 2242, 20 h

## C/C(=N\Nc1nc(C)cs1)c1cccc(O)c1
[1]
  MIC: 256 µg/mL (≈ 1040 µM)
[2]
  MIC: 256 µg/mL (≈ 1040 µM)
[3]
  Activity: Active
[4]
  MIC: 256 µg/mL (≈ 1040 µM)
[5]
  Kd: > 1000 µM
[6]
  MIC: > 1020 µg/mL
[7]
  MIC: > 1020 µg/mL

## Cc1c(C(=O)O)cc(C(C)(C)C)n1CCSCc1c(F)cccc1Cl
[3]
  Activity: inactive

## NS(=O)(=O)c1cccc(NC(=O)Nc2cccc(S(N)(=O)=O)c2)c1
[3]
  Activity: inactive

## Cn1ncc2c(Nc3ccccc3)nc(NCCCO)nc21
[3]
  Activity: Active
[5]
  Kd: 141 µM

## C=C/C(C)=C/[C@@]1(C)SC(=O)C(C)=C1O [THIOLACTOMYCIN]
[1]
  MIC: 256 µg/mL (≈ 1220 µM)
[2]
  MIC: 256 µg/mL (≈ 1220 µM)
[3]
  Activity: Active
[4]
  MIC: 128 µg/mL (≈ 609 µM)
[5]
  Kd: 121 µM
[6]
  MIC: 128 µg/mL (≈ 609 µM)
[7]
  MIC: 256 µg/mL (≈ 1220 µM)

## O=C(O)c1cc(NC(=O)c2ccccc2[N+](=O)[O-])ccc1O
[3]
  Activity: Active
[5]
  Kd: > 1000 µM

## Cc1cc(C)nc(NS(=O)(=O)c2ccc(NC(=O)c3sc4ccccc4c3Cl)cc2)n1
[3]
  Activity: inactive

## CC1(O)N(CCC(N)=O)C(=O)OC12CCCCC2 (stereo unspecified)
[3]
  Activity: inactive

## CCCc1cc(=O)oc2cc(OC(=O)c3ccccc3Cl)ccc12
[3]
  Activity: inactive

## C=CCn1c(SCC(=O)Nc2ccc(S(N)(=O)=O)cc2)nnc1-c1ccc(Cl)cc1
[3]
  Activity: inactive

## COc1ccc2c(c1OC)C(=O)OC2C(C)C(=O)c1ccc(O)c(O)c1 (stereo unspecified)
[1]
  MIC: > 1020 µg/mL
[2]
  MIC: > 1020 µg/mL
[3]
  Activity: Active
[4]
  MIC: > 1020 µg/mL
[5]
  Kd: 1.22 µM
[6]
  MIC: > 1020 µg/mL
[7]
  MIC: > 1020 µg/mL

## CC(C)(CC(=O)O)CC(=O)NCCN1CCNC1=O
[3]
  Activity: Active
[5]
  Kd: > 1000 µM

## COc1ccc(NC(=O)CC(CC(=O)O)c2ccccc2)cc1 (stereo unspecified)
[3]
  Activity: inactive

## C=CCSC1Nn2c(nnc(C)c2=O)S1 (stereo unspecified)
[3]
  Activity: Active
[5]
  Kd: > 1000 µM

## CC1CN(c2ccc(O)c(C(=O)O)c2)C(=S)NC1=O (stereo unspecified)
[3]
  Activity: Active
[5]
  Kd: > 1000 µM

## Oc1ccc(/C=N/C2CCCCC2)c(O)c1
[1]
  MIC: 256 µg/mL (≈ 1170 µM)
[2]
  MIC: 256 µg/mL (≈ 1170 µM)
[3]
  Activity: Active
[4]
  MIC: 128 µg/mL (≈ 584 µM)
[5]
  Kd: 0.02 µM
[6]
  MIC: 128 µg/mL (≈ 584 µM)
[7]
  MIC: 256 µg/mL (≈ 1170 µM)

## COc1ccc2c(c1)CCC/C2=N/Nc1nc(C(=O)NN)cs1
[3]
  Activity: inactive
